{
  "source": "patent US8921362B2",
  "about": "“6,7-dialkoxy quinazoline derivatives and methods of treating drug resistant and other tumors” (Natco Pharma Limited, priority 2008, dated 2014)",
  "assay_in_all_cases": "KinomeScan",
  "type_in_all_cases": "binding",
  "conditions_in_all_cases": "read-out: % Ctrl @ 10000 nM",
  "key": {"AMPK-alpha1": {"target": "T1, AMPK-alpha1 (Homo sapiens, UniProt Q13131)", "T1 construct": "host or cells: E. coli (BL21-derived), T7 phage lysate", "summary_of_the_method": "(§1)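 Each kinase was expressed as a T7 phage fusion, with lysates produced in log-phase BL21-derived E. coli. Captured phage after compound competition was measured by qPCR.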"}, "BIKE": {"target": "T2, BIKE (Homo sapiens, UniProt Q9NSY1)", "T2 construct": "host or cells: E. coli host derived from BL21", "summary_of_the_method": "as §1"}, "CAMK1": {"target": "T3, CAMK1 (Homo sapiens, UniProt Q14012)", "T3 construct": "host or cells: E. coli host derived from BL21", "summary_of_the_method": "as §1"}, "CAMK2B": {"target": "T4, CAMK2B (Homo sapiens, UniProt Q13554)", "T4 construct": "host or cells: E. coli host derived from BL21", "summary_of_the_method": "as §1"}, "CAMK4": {"target": "T5, CAMK4 (Homo sapiens, UniProt Q16566)", "T5 construct": "host or cells: T7 phage in E. coli host derived from BL21", "summary_of_the_method": "as §1"}, "CDK2": {"target": "T6, CDK2 (Homo sapiens, UniProt P24941)", "T6 construct": "host or cells: T7 phage in E. coli host derived from BL21", "summary_of_the_method": "as §1"}, "CHEK2": {"target": "T7, CHEK2 (Homo sapiens, UniProt O96017)", "T7 construct": "host or cells: T7 phage in E. coli host derived from BL21", "summary_of_the_method": "as §1"}, "CLK4": {"target": "T8, CLK4 (Homo sapiens, UniProt Q9HAZ1)", "T8 construct": "host or cells: T7 phage in E. coli host derived from BL21", "summary_of_the_method": "as §1"}, "CSNK1A1L": {"target": "T9, CSNK1A1L (Homo sapiens, UniProt Q8N752)", "T9 construct": "host or cells: T7 phage in E. coli host derived from BL21", "summary_of_the_method": "as §1"}, "CSNK1G1": {"target": "T10, CSNK1G1 (Homo sapiens, UniProt Q9HCP0)", "T10 construct": "purchased Ambit Biosciences Corp (KinomeScan); host or cells: T7 phage in E. coli host derived from BL21", "summary_of_the_method": "as §1"}, "DAPK1": {"target": "T11, DAPK1 (Homo sapiens, UniProt P53355)", "T11 construct": "purchased Ambit Biosciences Corp (KinomeScan); host or cells: T7 phage in E. coli host derived from BL21", "summary_of_the_method": "as §1"}, "DAPK2": {"target": "T12, DAPK2 (Homo sapiens, UniProt Q9UIK4)", "T12 construct": "purchased Ambit Biosciences Corp (KinomeScan); host or cells: T7 phage in E. coli host derived from BL21", "summary_of_the_method": "as §1"}, "EGFR": {"target": "T13, EGFR (Homo sapiens, UniProt P00533)", "T13 construct": "purchased Ambit Biosciences Corp (KinomeScan); host or cells: T7 phage in E. coli host derived from BL21", "summary_of_the_method": "as §1"}, "EPHA5": {"target": "T14, EPHA5 (Homo sapiens, UniProt P54756)", "T14 construct": "purchased Ambit Biosciences Corp; host or cells: T7 phage in E. coli host derived from BL21", "summary_of_the_method": "as §1"}, "EPHA8": {"target": "T15, EPHA8 (Homo sapiens, UniProt P29322)", "T15 construct": "purchased Ambit Biosciences Corp; host or cells: T7 phage in E. coli host derived from BL21", "summary_of_the_method": "as §1"}, "EPHB2": {"target": "T16, EPHB2 (Homo sapiens, UniProt P29323)", "T16 construct": "purchased Ambit Biosciences Corp; host or cells: T7 phage in E. coli host derived from BL21", "summary_of_the_method": "as §1"}, "ERK1": {"target": "T17, ERK1 (Homo sapiens, UniProt P27361)", "T17 construct": "purchased Ambit Biosciences Corp; host or cells: T7 phage in E. coli host derived from BL21", "summary_of_the_method": "as §1"}, "FAK": {"target": "T18, FAK (Homo sapiens, UniProt Q05397)", "T18 construct": "purchased Ambit Biosciences Corp; host or cells: T7 phage in E. coli host derived from BL21", "summary_of_the_method": "as §1"}, "FLT1": {"target": "T19, FLT1 (Homo sapiens, UniProt P17948)", "T19 construct": "host or cells: T7 phage in E. coli host derived from BL21", "T19 sequence (P17948 27-1338)": "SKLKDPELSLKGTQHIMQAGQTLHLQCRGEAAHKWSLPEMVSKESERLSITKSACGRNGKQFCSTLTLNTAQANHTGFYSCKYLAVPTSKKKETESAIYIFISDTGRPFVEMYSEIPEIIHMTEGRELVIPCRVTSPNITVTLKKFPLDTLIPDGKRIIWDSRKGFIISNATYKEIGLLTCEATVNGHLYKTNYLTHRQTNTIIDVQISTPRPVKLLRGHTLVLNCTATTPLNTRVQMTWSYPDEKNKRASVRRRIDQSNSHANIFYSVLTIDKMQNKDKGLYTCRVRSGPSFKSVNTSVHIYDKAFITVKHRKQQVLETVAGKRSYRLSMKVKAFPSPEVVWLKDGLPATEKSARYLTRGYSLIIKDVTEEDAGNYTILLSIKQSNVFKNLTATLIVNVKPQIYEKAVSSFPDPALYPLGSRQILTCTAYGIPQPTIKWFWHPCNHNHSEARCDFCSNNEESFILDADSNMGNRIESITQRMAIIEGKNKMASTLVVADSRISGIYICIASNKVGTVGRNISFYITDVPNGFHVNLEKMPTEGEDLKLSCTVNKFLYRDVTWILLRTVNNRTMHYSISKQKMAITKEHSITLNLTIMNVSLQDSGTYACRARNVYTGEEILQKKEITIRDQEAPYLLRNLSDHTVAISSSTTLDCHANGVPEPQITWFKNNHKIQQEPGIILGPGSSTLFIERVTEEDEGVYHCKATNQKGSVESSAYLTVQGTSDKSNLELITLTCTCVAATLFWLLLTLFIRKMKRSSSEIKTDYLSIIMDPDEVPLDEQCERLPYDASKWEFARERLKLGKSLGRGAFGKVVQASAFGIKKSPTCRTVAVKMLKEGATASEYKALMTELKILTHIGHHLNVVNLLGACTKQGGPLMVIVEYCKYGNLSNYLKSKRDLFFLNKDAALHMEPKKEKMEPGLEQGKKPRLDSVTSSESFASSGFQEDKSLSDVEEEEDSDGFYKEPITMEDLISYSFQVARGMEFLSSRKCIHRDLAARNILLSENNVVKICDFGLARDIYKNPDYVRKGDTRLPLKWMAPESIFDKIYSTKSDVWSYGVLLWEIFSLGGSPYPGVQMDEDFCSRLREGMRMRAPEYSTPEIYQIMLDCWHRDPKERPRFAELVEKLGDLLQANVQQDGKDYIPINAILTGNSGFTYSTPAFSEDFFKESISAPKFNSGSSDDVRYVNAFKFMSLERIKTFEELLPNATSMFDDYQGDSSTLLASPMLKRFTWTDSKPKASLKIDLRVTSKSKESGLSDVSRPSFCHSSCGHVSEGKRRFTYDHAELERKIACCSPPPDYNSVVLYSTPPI", "summary_of_the_method": "as §1"}, "FLT3(D835Y)": {"target": "T20, FLT3(D835Y) (Homo sapiens, UniProt P36888, D835Y)", "T20 construct": "host or cells: T7 phage in E. coli host derived from BL21", "summary_of_the_method": "as §1"}, "LCK": {"target": "T21, LCK (Homo sapiens, UniProt P06239)", "T21 construct": "host or cells: T7 phage grown in E. coli host derived from BL21", "T21 sequence (P06239 whole entry)": "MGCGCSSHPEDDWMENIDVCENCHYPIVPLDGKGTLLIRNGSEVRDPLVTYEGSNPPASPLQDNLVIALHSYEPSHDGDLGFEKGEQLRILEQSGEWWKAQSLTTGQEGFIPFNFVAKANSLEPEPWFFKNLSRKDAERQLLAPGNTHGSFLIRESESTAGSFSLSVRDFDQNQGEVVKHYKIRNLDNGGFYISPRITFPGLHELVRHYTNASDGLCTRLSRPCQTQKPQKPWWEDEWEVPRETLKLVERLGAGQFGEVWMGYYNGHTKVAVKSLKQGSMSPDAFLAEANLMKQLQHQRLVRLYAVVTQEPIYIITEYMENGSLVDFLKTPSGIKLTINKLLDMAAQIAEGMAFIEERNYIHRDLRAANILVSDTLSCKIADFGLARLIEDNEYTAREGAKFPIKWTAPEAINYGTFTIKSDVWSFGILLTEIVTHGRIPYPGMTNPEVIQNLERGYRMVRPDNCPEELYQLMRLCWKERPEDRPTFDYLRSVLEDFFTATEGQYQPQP", "summary_of_the_method": "as §1"}, "LYN": {"target": "T22, LYN (Homo sapiens, UniProt P07948)", "T22 construct": "host or cells: E. coli host derived from the BL21 strain, infected with T7 phage", "summary_of_the_method": "as §1"}, "MAP3K4": {"target": "T23, MAP3K4 (Homo sapiens, UniProt Q9Y6R4)", "T23 construct": "host or cells: E. coli host derived from the BL21 strain, infected with T7 phage", "summary_of_the_method": "as §1"}, "MEK6": {"target": "T24, MEK6 (Homo sapiens, UniProt P52564)", "T24 construct": "host or cells: E. coli host derived from the BL21 strain, infected with T7 phage", "T24 sequence (P52564 whole entry)": "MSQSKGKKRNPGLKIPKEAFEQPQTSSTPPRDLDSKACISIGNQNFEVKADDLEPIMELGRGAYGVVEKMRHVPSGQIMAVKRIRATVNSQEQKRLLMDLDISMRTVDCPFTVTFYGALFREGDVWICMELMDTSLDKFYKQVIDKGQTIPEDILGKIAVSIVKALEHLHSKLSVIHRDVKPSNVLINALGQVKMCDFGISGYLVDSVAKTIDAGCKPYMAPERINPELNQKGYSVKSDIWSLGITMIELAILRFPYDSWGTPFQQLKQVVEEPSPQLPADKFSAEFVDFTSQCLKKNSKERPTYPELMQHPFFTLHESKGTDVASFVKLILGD", "summary_of_the_method": "as §1"}, "MKNK2": {"target": "T25, MKNK2 (Homo sapiens, UniProt Q9HBH9)", "T25 construct": "host or cells: T7 phage grown in E. coli host derived from BL21", "T25 sequence (Q9HBH9 whole entry)": "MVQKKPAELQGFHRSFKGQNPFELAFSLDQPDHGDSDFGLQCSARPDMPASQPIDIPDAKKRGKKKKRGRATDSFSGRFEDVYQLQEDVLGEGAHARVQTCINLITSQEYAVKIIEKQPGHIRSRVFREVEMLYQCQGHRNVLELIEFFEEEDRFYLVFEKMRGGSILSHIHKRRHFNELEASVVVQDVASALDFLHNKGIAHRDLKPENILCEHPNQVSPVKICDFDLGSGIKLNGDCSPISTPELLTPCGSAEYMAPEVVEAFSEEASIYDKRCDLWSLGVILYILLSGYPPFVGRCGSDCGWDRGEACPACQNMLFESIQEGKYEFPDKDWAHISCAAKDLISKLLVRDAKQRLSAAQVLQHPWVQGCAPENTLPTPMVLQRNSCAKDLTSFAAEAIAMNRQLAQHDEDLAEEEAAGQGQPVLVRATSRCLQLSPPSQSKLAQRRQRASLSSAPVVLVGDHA", "summary_of_the_method": "as §1"}, "MRCKA": {"target": "T26, MRCKA (Homo sapiens, UniProt Q5VT25)", "T26 construct": "host or cells: T7 phage grown in E. coli host derived from BL21", "summary_of_the_method": "as §1"}, "MST2": {"target": "T27, MST2 (Homo sapiens, UniProt Q13188)", "T27 construct": "host or cells: T7 phage grown in E. coli host derived from BL21", "summary_of_the_method": "as §1"}, "PLK1": {"target": "T28, PLK1 (Homo sapiens, UniProt P53350)", "T28 construct": "host or cells: T7 phage in E. coli host derived from BL21", "summary_of_the_method": "as §1"}, "PRKX": {"target": "T29, PRKX (Homo sapiens, UniProt P51817)", "T29 construct": "host or cells: E. coli host derived from BL21, T7 phage display", "T29 sequence (P51817 whole entry)": "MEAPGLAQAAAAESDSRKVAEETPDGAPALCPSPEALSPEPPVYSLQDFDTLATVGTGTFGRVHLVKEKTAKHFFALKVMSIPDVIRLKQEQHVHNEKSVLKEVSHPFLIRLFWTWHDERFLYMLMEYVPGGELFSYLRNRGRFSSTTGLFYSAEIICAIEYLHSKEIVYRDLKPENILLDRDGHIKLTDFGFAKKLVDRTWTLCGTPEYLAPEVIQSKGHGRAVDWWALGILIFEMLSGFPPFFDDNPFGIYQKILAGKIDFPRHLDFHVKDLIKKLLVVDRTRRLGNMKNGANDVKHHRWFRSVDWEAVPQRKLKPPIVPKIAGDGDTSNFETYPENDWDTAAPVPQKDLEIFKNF", "summary_of_the_method": "as §1"}, "[1]": {"target": "T30, RPS6KA6(Kin.Dom.-2-C-terminal) (Homo sapiens, UniProt Q9UK32)", "T30 construct": "RPS6KA6(Kin.Dom.-2-C-terminal); host or cells: T7 phage grown in E. coli (BL21-derived)", "summary_of_the_method": "as §1"}, "SLK": {"target": "T31, SLK (Homo sapiens, UniProt Q9H2G2)", "T31 construct": "host or cells: T7 phage grown in E. coli (BL21-derived)", "T31 sequence (Q9H2G2 whole entry)": "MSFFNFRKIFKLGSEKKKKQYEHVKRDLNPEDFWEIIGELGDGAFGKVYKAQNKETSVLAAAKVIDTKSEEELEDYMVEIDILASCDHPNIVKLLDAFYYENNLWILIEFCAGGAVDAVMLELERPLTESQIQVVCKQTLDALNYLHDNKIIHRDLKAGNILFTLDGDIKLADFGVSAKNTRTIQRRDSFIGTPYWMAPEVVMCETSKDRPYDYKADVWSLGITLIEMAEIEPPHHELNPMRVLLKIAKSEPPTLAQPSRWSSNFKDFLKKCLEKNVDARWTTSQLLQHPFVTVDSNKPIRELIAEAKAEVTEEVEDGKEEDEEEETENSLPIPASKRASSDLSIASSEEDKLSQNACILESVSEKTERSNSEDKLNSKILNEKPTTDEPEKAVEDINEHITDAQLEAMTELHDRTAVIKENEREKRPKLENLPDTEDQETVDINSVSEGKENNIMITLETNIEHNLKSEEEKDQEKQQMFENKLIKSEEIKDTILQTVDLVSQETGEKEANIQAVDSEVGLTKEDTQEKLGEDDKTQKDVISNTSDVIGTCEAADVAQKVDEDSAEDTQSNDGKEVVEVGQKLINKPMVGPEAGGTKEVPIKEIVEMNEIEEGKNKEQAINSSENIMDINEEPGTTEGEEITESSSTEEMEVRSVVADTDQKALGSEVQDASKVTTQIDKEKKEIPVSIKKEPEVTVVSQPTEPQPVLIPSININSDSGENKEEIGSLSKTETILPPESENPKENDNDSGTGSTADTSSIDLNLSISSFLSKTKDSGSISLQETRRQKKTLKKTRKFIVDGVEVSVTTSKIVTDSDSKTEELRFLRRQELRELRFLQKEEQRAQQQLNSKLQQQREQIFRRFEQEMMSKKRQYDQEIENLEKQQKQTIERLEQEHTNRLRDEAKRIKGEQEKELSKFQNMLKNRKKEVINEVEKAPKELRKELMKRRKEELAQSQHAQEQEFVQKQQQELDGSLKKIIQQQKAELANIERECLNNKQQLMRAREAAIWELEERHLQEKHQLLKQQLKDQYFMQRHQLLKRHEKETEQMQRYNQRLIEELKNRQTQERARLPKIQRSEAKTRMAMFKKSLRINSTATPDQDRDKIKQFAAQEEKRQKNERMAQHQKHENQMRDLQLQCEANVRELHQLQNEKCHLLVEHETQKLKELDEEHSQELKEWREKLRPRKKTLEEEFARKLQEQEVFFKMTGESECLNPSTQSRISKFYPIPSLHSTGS", "summary_of_the_method": "as §1"}, "TAOK3": {"target": "T32, TAOK3 (Homo sapiens, UniProt Q9H2K8)", "T32 construct": "host or cells: T7 phage grown in E. coli (BL21-derived)", "summary_of_the_method": "as §1"}, "TRKC": {"target": "T33, TRKC (Homo sapiens, UniProt Q16288)", "T33 construct": "host or cells: E. coli host derived from BL21, T7 phage", "T33 sequence (Q16288 32-839)": "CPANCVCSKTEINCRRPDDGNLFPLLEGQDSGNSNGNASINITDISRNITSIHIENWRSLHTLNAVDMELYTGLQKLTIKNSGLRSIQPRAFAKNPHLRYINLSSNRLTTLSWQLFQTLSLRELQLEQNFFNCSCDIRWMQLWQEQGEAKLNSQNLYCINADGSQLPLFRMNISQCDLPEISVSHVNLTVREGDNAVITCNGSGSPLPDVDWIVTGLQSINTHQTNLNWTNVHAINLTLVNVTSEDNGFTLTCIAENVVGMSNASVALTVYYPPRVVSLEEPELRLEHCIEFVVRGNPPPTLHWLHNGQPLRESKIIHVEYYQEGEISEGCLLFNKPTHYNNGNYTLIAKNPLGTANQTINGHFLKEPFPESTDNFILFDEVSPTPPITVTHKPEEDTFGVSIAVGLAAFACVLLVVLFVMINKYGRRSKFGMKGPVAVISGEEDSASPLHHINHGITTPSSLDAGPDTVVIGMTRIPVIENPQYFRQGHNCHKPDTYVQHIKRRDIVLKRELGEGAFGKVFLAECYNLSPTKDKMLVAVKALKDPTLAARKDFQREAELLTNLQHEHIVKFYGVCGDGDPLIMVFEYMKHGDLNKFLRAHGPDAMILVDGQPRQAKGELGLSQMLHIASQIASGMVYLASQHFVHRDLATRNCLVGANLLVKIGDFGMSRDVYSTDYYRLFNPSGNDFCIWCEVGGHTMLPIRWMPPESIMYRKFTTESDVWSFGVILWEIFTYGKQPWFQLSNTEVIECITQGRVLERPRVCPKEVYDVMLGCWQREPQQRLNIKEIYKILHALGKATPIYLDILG", "summary_of_the_method": "as §1"}, "TTK": {"target": "T34, TTK (Homo sapiens, UniProt P33981)", "T34 construct": "host or cells: E. coli host derived from BL21, T7 phage", "summary_of_the_method": "as §1"}},
  "data": [
    {"smiles": "C#Cc1cccc(Nc2ncnc3cc(OC)c(OCCCN4CCOCC4)cc23)c1", "note": "[NRC-2694, N-(3-ethynylphenyl)-7-methoxy-6-[3-(4-morpholinyl)propoxy]-4-quinazolinamine]", "values": [
      {"measurement": "remaining binding at 10 µM", "setting": "AMPK-alpha1", "result": 50, "unit": "%"},
      {"measurement": "remaining binding at 10 µM", "setting": "BIKE", "result": 36, "unit": "%"},
      {"measurement": "remaining binding at 10 µM", "setting": "CAMK1", "result": 65, "unit": "%"},
      {"measurement": "remaining binding at 10 µM", "setting": "CAMK2B", "result": 77, "unit": "%"},
      {"measurement": "remaining binding at 10 µM", "setting": "CAMK4", "result": 92, "unit": "%"},
      {"measurement": "remaining binding at 10 µM", "setting": "CDK2", "result": 94, "unit": "%"},
      {"measurement": "remaining binding at 10 µM", "setting": "CHEK2", "result": 38, "unit": "%"},
      {"measurement": "remaining binding at 10 µM", "setting": "CLK4", "result": 17, "unit": "%"},
      {"measurement": "remaining binding at 10 µM", "setting": "CSNK1A1L", "result": 44, "unit": "%"},
      {"measurement": "remaining binding at 10 µM", "setting": "CSNK1G1", "result": 55, "unit": "%"},
      {"measurement": "remaining binding at 10 µM", "setting": "DAPK1", "result": 26, "unit": "%"},
      {"measurement": "remaining binding at 10 µM", "setting": "DAPK2", "result": 61, "unit": "%"},
      {"measurement": "remaining binding at 10 µM", "setting": "EGFR", "result": 0, "unit": "%"},
      {"measurement": "remaining binding at 10 µM", "setting": "EPHA5", "result": 86, "unit": "%"},
      {"measurement": "remaining binding at 10 µM", "setting": "EPHA8", "result": 66, "unit": "%"},
      {"measurement": "remaining binding at 10 µM", "setting": "EPHB2", "result": 83, "unit": "%"},
      {"measurement": "remaining binding at 10 µM", "setting": "ERK1", "result": 98, "unit": "%"},
      {"measurement": "remaining binding at 10 µM", "setting": "FAK", "result": 85, "unit": "%"},
      {"measurement": "remaining binding at 10 µM", "setting": "FLT1", "result": 64, "unit": "%"},
      {"measurement": "remaining binding at 10 µM", "setting": "FLT3(D835Y)", "result": 9.4, "unit": "%"},
      {"measurement": "remaining binding at 10 µM", "setting": "LCK", "result": 1.5, "unit": "%"},
      {"measurement": "remaining binding at 10 µM", "setting": "LYN", "result": 13, "unit": "%"},
      {"measurement": "remaining binding at 10 µM", "setting": "MAP3K4", "result": 53, "unit": "%"},
      {"measurement": "remaining binding at 10 µM", "setting": "MEK6", "result": 75, "unit": "%"},
      {"measurement": "remaining binding at 10 µM", "setting": "MKNK2", "result": 16, "unit": "%"},
      {"measurement": "remaining binding at 10 µM", "setting": "MRCKA", "result": 81, "unit": "%"},
      {"measurement": "remaining binding at 10 µM", "setting": "MST2", "result": 85, "unit": "%"},
      {"measurement": "remaining binding at 10 µM", "setting": "PLK1", "result": 81, "unit": "%"},
      {"measurement": "remaining binding at 10 µM", "setting": "PRKX", "result": 100, "unit": "%"},
      {"measurement": "remaining binding at 10 µM", "setting": "[1]", "result": 55, "unit": "%"},
      {"measurement": "remaining binding at 10 µM", "setting": "SLK", "result": 0.3, "unit": "%"},
      {"measurement": "remaining binding at 10 µM", "setting": "TAOK3", "result": 76, "unit": "%"},
      {"measurement": "remaining binding at 10 µM", "setting": "TRKC", "result": 80, "unit": "%"},
      {"measurement": "remaining binding at 10 µM", "setting": "TTK", "result": 48, "unit": "%"}
    ]}
  ]
}
